Source: article PMC9032385, “A2A Adenosine Receptor Antagonists: Are Triazolotriazine and Purine Scaffolds Interchangeable?” (Molecules, 2022)

Experiments:
[1] = biological target: T1, human recombinant A2AAR (Homo sapiens, UniProt P29274); assay: Radioligand binding at human A2AAR ([3H]NECA displacement, CHO cell membranes); details: ratio of Ki values
T1 construct: expressed in transfected cells; membrane preparation
Experimental: Most of the compounds were also evaluated at A2BARs in a functional study using the GloSensor cAMP assay. […] In the case of A2BARs, Ki-values were calculated from IC50-values determined by the inhibition of NECA-stimulated adenylyl cyclase activity.
Preparation of membranes: Cell membranes for binding assays were prepared mechanically detaching the cells from the petri and suspending them in a cold hypotonic buffer (5 mM Tris/HCl, 2 mM EDTA, pH 7.4). The cell suspension was homogenized (Ultra-Turrax, 2 × 15 s at maximum speed) and the homogenate centrifuged for 10 min (4 °C) to 1000× g. […] The amount of the protein suspension was determined according to the […] using the BCA Protein Assay Kit (Pierce), frozen in liquid nitrogen, and stored at −80 °C.
Binding assays: The dissociation constants of the radioligand (KD) were calculated through saturation assays, while the dissociation constants of the compounds under study (Ki) were determined by competition experiments. All binding data were calculated by nonlinear regression curves using the software GraphPad Prism 5 (GraphPad Software, San Diego, CA, USA). The increasing concentrations of the radioligand saturation binding ([^3H]-CCPA for the A1 receptor subtype, [^3H]-NECA for the A2A receptor subtype, and [^3H]-HEMADO for the A3 receptor) subtype were incubated in a total volume of 250 μL containing 0.2 U/mL of Ado deaminase (ADA) and 12 micrograms of membrane proteins in the specific buffer. In competition experiments for the A1 receptor subtype, each compound was added at increasing concentrations, to the well containing 1 nM of [^3H]-CCPA, to a final volume of 200 μL. The samples were left to incubate for 3 h at room temperature, filtered in a filter 96-well plate (UniFilter GF/C, Perkin-Elmer Life and Analytical Science, Boston, MA) using the FilterMate Cell Harvester (Perkin-Elmer), and washed 3 times with cold distilled water. After drying the filter plate at 40 °C for 30′, they 20 μL of scintillating liquid (Microscint-20, Perkin-Elmer) was added to each well, and then the radioactivity was quantized with the MicroBeta2 Plate Counter (Perkin-Elmer). The conditions for binding experiments at A2A and A3 receptor subtypes were essentially the same as for the A1AR using [^3H]-NECA (N-ethylcarboxyamideAdo) at a concentration of 10 nM and [^3H]-HEMADO (2-(1-hexyne)-N^6-methylAdo) at a concentration of 1 nM as radioligands, respectively. The samples were incubated with 12 micrograms of protein for 3 h at room temperature and filtered as described above.
The non-specific binding was determined in the presence of 1 mM theophylline for the A1AR, or 100 µM R-PIA (N^6-(1-methyl-2-phenylethyl)Ado) for the A2A and A3 receptors.

[2] = system: BV-2 murine microglial cells; assay: RT-PCR expression of inflammatory mediators in LPS-activated BV-2 cells; format: cell-based; details: 10 nM for 24 h, then 100 ng/mL LPS 24 h
Experimental: BV-2 cells were treated with 13 or ANR 94 (10 nM) and activated with 100 ng/mL LPS for 24 h. Total RNA was isolated, and proinflammatory cytokine and enzyme expressions were measured using RT-PCR (Figure 5).
Cell Cultures and Treatments: BV-2 murine microglial cells (a gift from Prof. Elisabetta Blasi of the University of Modena and Reggio Emilia, Modena, Italy) were maintained at 37 °C and 5% CO2 in a humidified incubator and grown in DMEM supplemented with 10% (v/v) low-endotoxin fetal bovine serum (Euroclone—Milan, Italy), 2 mM L-glutamine, 50 U/mL penicillin, and 50 μg/mL streptomycin (Sigma-Aldrich–Merck, Milan, Italy). Cells were seeded at 50,000 cells/mL in 96-well tissue culture plates for the viability assay, in 6-well tissue culture plates for the Griess assay and RT-PCR assay. BV-2 cells were treated for 24 h with ANR 94 or 13 at different concentrations and then exposed to LPS (100 ng/mL; Sigma-Aldrich–Merck) for a further 24 h.
Real-Time Polymerase Chain Reaction (PCR): At the end of the experiments, total RNA was extracted by BV-2 cells using RNeasy Mini Kit (QIAGEN GmbH, Hilden, Germany). RNA concentraion and quality were measured on a NanoVue Spectrophotometer (GE Healthcare, Milano, Italy). iScript cDNA Synthesis Kit (Bio-Rad, Hercules, CA, USA) was used to synthesize cDNA starting from the extracted RNA, following the supplier’s instructions. PCR was performed by adding 2.5 μL (12.5 ng) of cDNA, 5 μL SsoAdvanced Universal SYBR Green Supermix (Bio-Rad), and 0.5 μL (500 nM) of each primer (Table 2) to a PCR tube. cDNA amplification was started at 95 °C for 30 s to activate the polymerase, followed by 40 cycles of 5 s at 95 °C and 30 s at 60 °C. Normalized expression levels were calculated relative to the control cells according to the 2^−ΔΔCT method.

[3] = system: rats sensitized to L-DOPA; set-up: method as in PMID 35184706; details: cited from earlier work
[4] = system: neuronal injury model induced by 6-hydroxydopamine; set-up: method as in PMID 35184706; details: cited from earlier work
[5] = system: catalepsy induced by haloperidol; set-up: method as in PMID 35184706; details: in vivo model of Parkinson's disease; cited from earlier work
[6] = system: tremor induced by tacrine; set-up: method as in PMID 35184706; details: cited from earlier work
[7] = biological target: T2, A2BAR (Homo sapiens, UniProt P29275); details: reference compound ANR 94, reference printed at end of table row; cited from earlier work
T2 construct: expressed in transfected cells
T2 sequence (P29275 1-332): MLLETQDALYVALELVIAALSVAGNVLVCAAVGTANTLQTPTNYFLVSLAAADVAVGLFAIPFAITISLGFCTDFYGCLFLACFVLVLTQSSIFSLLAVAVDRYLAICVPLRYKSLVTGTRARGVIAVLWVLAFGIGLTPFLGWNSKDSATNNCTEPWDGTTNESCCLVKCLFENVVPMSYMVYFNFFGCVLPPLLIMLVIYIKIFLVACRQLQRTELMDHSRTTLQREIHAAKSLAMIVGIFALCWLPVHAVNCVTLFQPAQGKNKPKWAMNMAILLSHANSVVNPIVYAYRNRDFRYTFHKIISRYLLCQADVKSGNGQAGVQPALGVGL

[8] = biological target: T3, human recombinant A3AR (Homo sapiens, UniProt P0DMS8); details: reference compound ANR 94; cited from earlier work
T3 construct: expressed in transfected cells; membrane preparation
T3 sequence (P0DMS8 1-318): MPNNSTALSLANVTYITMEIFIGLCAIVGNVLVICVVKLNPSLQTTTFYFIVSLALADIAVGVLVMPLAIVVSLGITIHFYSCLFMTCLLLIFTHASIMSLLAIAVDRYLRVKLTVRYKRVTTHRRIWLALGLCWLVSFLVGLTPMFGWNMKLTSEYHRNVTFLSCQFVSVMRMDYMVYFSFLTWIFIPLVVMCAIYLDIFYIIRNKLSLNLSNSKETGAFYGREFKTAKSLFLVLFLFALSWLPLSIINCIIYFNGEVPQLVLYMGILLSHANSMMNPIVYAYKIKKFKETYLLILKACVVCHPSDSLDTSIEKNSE

[9] = system: murine model of PD; set-up: method as in PMID 19951715; details: cited from earlier work
[10] = biological target: T4, human recombinant A1AR (Homo sapiens, UniProt P30542); details: reference compound ANR 94, reference printed at end of table row; cited from earlier work
T4 construct: expressed in transfected cells; membrane preparation
T4 sequence (P30542 1-326): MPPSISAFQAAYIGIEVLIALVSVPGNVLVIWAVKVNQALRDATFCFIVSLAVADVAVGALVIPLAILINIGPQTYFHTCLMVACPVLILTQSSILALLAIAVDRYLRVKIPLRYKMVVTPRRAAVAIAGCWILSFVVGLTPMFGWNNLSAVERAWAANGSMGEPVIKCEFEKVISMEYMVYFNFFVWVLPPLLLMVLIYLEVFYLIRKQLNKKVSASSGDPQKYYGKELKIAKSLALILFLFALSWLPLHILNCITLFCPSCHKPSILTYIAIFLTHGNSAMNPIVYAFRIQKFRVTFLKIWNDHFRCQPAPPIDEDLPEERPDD

T1 sequence (P29274 whole entry): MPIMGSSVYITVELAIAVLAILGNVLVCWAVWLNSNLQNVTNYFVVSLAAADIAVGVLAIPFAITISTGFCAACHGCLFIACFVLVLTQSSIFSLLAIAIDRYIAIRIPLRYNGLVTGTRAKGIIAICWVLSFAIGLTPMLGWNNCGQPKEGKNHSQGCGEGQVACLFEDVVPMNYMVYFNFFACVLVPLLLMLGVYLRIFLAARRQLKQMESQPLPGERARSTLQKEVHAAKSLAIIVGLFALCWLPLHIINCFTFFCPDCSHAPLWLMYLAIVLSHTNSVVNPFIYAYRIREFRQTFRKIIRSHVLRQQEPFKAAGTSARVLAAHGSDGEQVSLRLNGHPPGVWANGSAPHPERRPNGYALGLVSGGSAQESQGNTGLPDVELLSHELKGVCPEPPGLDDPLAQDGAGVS

**Q.** With `CCOc1nc2c(N)ncnc2n1CC` [ANR 94, 9-ethyl-8-ethoxyadenine] as the compound, how does the “selectivity A1/A2A” value [1] read?
**A.** The value was 52.

**Q.** What about the “selectivity A2B/A2A” value [1] of the same compound?
**A.** Its value is over 652.

**Q.** And the “selectivity A3/A2A” value [1]?
**A.** Its value is 457.

**Q.** What about the “COX-2 mRNA expression vs LPS” value [2] of the same compound?
**A.** Its value is “only able to significantly reduce the expression of IL-1β”.

**Q.** What about the “IL-1β mRNA expression vs LPS” value [2] of the same compound?
**A.** Its value is “significantly reduce the expression of IL-1β”.

**Q.** What about the “IL-6 mRNA expression vs LPS” value [2] of the same compound?
**A.** The value was “only able to significantly reduce the expression of IL-1β”.

**Q.** And the “iNOS mRNA expression vs LPS” value [2]?
**A.** Its value is “only able to significantly reduce the expression of IL-1β”.

**Q.** And the contralateral turning behavior [3]?
**A.** The contralateral turning behavior was “induced contralateral turning behavior”.

**Q.** What about the motor deficit [4] of the same compound?
**A.** The motor deficit was “reducing the motor deficit”.

**Q.** What about the “effect on catalepsy induced by haloperidol” value [5] of the same compound?
**A.** The value was “reversed the catalepsy induced by haloperidol”.

**Q.** What about the “intensity of the tremor induced by tacrine” value [6] of the same compound?
**A.** Its value is “good efficacy in lowering the intensity of the tremor”.

**Q.** What about the Ki [7] of the same compound?
**A.** The Ki was over 30 µM.

**Q.** What about the Ki [8] of the same compound?
**A.** Its Ki is 21 µM.

**Q.** And the microglia activation [9]?
**A.** The microglia activation was “ability to reduce microglia activation”.

**Q.** And the Ki [10]?
**A.** Its Ki is 2.4 µM.
